Laboratory results taken from patent publication US10526316B2, “Quinoxaline and pyridopyrazine derivatives as PI3Kβ inhibitors” (Janssen Pharmaceutica NV, priority 2015, dated 2020).
pIC50, pKd: −log10 of the molar value. Like-named read-outs stand apart in the source and are kept apart here.

Assays:
PI3Kβ = molecular target: T1, PI3Kβ (Homo sapiens, UniProt P42338); assay: Enzyme binding assay (KINOMEscan, DiscoveRx); settings: PIK3Cβ_h, read-out: Kd PIK3Cβ_h
T1 construct: purchased DiscoveRx Corporation, San Diego (contract service, KINOMEscan)
In short: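 Reported Kd (nM) reflects inhibitor binding to the kinase, as measured by KINOMEscan technology.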

PI3Kδ = molecular target: T2, PI3Kδ (Homo sapiens, UniProt O00329); assay: Enzyme binding assay (KINOMEscan, DiscoveRx); settings: PIK3Cδ_h
T2 construct: purchased DiscoveRx Corporation, San Diego (contract service, KINOMEscan)
T2 sequence (O00329 1-1044): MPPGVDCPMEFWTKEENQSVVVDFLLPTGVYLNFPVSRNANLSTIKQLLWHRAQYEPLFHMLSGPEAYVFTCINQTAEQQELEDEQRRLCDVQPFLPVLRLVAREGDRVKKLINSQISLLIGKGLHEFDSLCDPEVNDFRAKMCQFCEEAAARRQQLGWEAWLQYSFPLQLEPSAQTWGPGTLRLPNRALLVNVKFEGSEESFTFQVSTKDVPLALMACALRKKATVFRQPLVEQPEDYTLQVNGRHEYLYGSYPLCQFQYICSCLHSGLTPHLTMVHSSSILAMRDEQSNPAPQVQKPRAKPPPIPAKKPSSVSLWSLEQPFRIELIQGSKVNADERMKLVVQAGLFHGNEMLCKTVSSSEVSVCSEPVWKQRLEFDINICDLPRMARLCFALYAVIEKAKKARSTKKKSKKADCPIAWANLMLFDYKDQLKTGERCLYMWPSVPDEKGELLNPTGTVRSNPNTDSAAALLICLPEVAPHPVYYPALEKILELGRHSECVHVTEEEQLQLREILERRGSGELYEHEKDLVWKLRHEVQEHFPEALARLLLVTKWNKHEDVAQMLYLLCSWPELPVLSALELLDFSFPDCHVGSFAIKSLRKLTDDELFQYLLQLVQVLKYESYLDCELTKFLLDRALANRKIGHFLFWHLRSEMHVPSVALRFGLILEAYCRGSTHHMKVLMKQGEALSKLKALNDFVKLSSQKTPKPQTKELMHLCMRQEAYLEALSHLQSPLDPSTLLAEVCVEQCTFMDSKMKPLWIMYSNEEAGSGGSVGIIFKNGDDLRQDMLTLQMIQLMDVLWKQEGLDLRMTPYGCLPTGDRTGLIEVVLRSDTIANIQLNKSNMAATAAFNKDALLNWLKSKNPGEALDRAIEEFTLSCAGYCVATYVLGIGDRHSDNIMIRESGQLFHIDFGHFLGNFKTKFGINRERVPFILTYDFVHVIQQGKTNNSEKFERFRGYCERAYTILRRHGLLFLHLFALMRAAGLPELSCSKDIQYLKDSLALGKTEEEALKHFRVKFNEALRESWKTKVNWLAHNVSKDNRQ
In short: (§1)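 Kinase binding measured via KINOMEscan, reported as affinity.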

kinase enzymes [1] = molecular target: T3, kinase enzymes (Homo sapiens, UniProt P42336); assay: Enzyme binding assay (KINOMEscan, DiscoveRx), further kinases of Table A; settings: PIK3Cα_h
T3 construct: purchased DiscoveRx Corporation, San Diego (contract service, KINOMEscan)
In short: as §1

kinase enzymes [2] = molecular target: T4, kinase enzymes (Homo sapiens, UniProt P42345); assay: as above; settings: MTOR_h
T4 construct: purchased DiscoveRx Corporation, San Diego (contract service, KINOMEscan)
In short: as §1

kinase enzymes [3] = molecular target: T5, kinase enzymes (Homo sapiens, UniProt P48736); assay: as above; settings: PIK3Cγ_h
T5 construct: purchased DiscoveRx Corporation, San Diego (contract service, KINOMEscan)
In short: as §1

[4] = test system: Akt phosphorylated at Ser473 in PC-3 cells; assay: Cellular assay: phosphorylation of Akt at Ser473 in PC-3 cells (MSD ELISA); format: cell-based; settings: PC-3 cells, 60 min compound incubation, MSD ELISA, read-out: IC50 pAkt_S473
In short: (§2)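 Phospho-Akt in whole-cell lysates is quantified by electrochemiluminescent immunoassay using phospho-site capture and total-Akt detection antibodies.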

[5] = test system: Akt phosphorylated at Thr308 in PC-3 cells; assay: Cellular assay: phosphorylation of Akt at Thr308 in PC-3 cells (MSD ELISA); format: cell-based; settings: PC-3 cells, 60 min compound incubation, MSD ELISA, read-out: IC50 pAkt_Thr308
In short: as §2

T5 sequence (P48736 whole entry): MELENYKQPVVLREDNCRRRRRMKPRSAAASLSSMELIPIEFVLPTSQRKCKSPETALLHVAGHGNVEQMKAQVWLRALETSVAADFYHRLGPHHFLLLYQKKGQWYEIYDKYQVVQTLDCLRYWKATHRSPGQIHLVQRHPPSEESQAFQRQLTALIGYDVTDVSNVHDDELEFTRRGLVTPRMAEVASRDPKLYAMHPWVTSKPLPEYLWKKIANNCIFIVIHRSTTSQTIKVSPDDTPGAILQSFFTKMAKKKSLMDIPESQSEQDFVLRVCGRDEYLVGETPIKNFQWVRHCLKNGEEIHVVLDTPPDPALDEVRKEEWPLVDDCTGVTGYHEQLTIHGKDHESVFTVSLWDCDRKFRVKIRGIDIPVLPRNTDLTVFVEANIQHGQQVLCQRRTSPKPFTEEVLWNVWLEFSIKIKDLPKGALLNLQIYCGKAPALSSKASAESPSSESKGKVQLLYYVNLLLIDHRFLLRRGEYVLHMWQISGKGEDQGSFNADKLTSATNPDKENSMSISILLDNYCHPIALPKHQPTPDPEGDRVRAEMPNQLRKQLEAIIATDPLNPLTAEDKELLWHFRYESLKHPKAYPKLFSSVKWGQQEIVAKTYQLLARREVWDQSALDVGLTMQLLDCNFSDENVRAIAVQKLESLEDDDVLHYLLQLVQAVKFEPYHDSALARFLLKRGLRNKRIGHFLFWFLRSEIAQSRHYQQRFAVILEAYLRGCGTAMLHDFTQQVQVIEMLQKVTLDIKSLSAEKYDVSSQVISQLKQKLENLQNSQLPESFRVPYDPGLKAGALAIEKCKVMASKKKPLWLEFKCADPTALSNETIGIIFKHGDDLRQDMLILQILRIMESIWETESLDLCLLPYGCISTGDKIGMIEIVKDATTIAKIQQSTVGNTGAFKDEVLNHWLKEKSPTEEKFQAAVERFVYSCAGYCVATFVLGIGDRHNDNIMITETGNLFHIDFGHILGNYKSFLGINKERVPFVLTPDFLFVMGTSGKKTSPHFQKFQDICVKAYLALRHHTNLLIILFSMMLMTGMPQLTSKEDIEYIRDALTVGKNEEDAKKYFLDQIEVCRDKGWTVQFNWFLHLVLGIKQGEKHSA
T1 sequence (P42338 whole entry): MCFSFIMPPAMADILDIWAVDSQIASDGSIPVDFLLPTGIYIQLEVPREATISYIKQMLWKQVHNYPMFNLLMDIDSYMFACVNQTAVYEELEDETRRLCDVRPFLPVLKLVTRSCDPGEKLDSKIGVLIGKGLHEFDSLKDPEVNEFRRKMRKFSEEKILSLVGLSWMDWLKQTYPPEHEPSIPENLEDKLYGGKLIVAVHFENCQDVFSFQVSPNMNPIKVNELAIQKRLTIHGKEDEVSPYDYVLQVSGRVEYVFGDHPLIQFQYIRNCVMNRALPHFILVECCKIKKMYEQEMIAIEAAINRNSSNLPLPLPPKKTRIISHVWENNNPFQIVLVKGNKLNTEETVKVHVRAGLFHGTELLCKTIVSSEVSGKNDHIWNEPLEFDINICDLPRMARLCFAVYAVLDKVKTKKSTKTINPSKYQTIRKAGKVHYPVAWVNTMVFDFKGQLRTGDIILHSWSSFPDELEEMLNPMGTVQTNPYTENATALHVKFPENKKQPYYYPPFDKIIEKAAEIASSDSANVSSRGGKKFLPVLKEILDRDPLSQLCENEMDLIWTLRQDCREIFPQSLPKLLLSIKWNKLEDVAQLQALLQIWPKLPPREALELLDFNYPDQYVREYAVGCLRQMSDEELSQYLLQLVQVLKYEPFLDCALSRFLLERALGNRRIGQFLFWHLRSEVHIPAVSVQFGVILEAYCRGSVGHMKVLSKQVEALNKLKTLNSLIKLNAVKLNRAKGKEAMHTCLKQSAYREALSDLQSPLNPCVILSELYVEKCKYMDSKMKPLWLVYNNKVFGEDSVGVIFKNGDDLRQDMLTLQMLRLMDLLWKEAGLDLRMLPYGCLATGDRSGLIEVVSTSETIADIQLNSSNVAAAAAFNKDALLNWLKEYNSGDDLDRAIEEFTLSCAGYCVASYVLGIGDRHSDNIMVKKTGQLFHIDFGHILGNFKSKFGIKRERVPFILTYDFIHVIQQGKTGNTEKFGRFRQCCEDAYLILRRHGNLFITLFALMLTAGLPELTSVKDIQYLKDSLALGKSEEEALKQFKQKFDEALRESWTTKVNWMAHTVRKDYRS
T3 sequence (P42336 whole entry): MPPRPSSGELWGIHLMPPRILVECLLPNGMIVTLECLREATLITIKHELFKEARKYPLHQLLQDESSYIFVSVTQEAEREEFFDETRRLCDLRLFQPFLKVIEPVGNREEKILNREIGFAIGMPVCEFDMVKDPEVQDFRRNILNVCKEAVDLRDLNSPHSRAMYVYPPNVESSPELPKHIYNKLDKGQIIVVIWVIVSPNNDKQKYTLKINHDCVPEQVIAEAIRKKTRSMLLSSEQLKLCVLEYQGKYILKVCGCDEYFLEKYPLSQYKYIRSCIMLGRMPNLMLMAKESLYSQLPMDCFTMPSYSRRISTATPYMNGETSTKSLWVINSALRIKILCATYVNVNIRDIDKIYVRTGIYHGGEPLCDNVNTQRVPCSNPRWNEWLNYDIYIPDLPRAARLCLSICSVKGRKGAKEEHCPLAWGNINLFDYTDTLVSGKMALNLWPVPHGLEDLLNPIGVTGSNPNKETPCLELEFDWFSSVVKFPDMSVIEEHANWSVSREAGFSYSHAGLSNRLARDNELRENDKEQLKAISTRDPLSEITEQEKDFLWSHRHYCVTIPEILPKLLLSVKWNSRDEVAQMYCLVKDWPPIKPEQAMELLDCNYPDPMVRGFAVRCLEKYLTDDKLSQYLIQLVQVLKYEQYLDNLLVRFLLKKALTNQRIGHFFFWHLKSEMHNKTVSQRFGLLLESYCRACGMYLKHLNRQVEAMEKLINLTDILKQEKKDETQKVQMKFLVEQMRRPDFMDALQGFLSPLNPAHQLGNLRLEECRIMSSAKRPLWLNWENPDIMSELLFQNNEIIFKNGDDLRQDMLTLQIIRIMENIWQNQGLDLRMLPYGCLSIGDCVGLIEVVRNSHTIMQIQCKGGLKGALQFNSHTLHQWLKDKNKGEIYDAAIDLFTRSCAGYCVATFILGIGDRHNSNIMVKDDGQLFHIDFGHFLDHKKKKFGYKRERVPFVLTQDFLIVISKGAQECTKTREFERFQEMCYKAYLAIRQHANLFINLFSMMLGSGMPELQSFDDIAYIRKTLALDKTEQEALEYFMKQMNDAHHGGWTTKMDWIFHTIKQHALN

| Compound | pKd (PI3Kβ) | pKd (PI3Kδ) | pKd (kinase enzymes [1]) | pKd (kinase enzymes [2]) | pKd (kinase enzymes [3]) | pIC50 [4] | pIC50 [5] | melting point [°C] | pIC50 ([5]; Homo sapiens, PC-3, 1 h) | pIC50 ([4]; Homo sapiens, PC-3, 1 h) |
| --- | --- | --- | --- | --- | --- | --- | --- | --- | --- | --- |
| CNCCOCCN(C)C(=O)c1cc(C(C)Nc2cc(F)cc(F)c2)c2nc(N3CCOCC3)cnc2c1 (single isomer, unassigned) [Compound 174] | 5.92 | 4.58 | < 4.52 | < 4.52 | < 4.52 | < 6.29 | < 6.29 | 80 |  |  |
| CC(Nc1cc(F)cc(F)c1)c1cc(C(=O)N(C)CCN(C)C)cc2ncc(N3CCOCC3)nc12 (single isomer, unassigned) [Compound 181] | 6.93 | 4.69 | 5.30 | < 4.52 | 4.75 | ~6.35 |  | 134 | ~6.40 |  |
| CC(Nc1cc(F)cc(F)c1)c1cc(C(=O)NCCO)cc2ncc(N3CCOCC3)nc12 (single isomer, unassigned) [Compound 188] | 9.00 | 6.74 | 6.07 | 4.79 | 5.64 | 7.66 | 7.82 | 80 |  |  |
| CC(Nc1cc(F)cc(F)c1)c1cc(CN2CCOCC23COC3)cc2ncc(N3CCOCC3)nc12 (single isomer, unassigned) [Compound 192] | 5.04 | < 4.52 | < 4.52 | < 4.52 | < 4.52 | < 6.29 | < 6.29 | 229 |  |  |
| CC(Oc1cc(F)cc(F)c1)c1cc(C(=O)NCCO)cc2ncc(N3CCOCC3)nc12 (single isomer, unassigned) [Compound 199] | 7.17 | 5.26 | 5.31 | 4.54 | 4.93 |  |  | 140 | 6.51 | < 6.29 |
| CC(Nc1cc(F)cc(F)c1)c1cc(C(=O)NC[C@@H](C)O)cc2ncc(N3CCOCC3)nc12 (single isomer, unassigned) [Compound 201] | 8.70 | 6.15 | 5.84 | 4.78 | 5.35 | 7.38 | 7.59 | 70 |  |  |
| COCCNC(=O)c1cc(C(C)Nc2cc(F)cc(F)c2)c2nc(N3CCOCC3)cnc2c1 (single isomer, unassigned) [Compound 203] | 8.30 | 6.04 | 5.78 | 4.67 | 5.18 | 7.01 | 7.36 | 118 |  |  |
| COCCNC(=O)c1cc(C(C)Nc2cc(F)cc(F)c2)c2nc(N3CCOCC3)cnc2c1 (single isomer, unassigned) [Compound 204] | 5.97 | < 4.52 | < 4.52 | < 4.52 | 4.84 | < 6.29 | < 6.29 | 80 |  |  |
| CC(Nc1cc(F)cc(F)c1)c1cc(CN2C[C@@H](C)O[C@@H](C)C2)cc2ncc(N3CCOCC3)nc12 (single isomer, unassigned) [Compound 206] | 5.15 | < 4.52 | < 4.52 | < 4.52 | < 4.52 | < 6.29 | < 6.29 | 80 |  |  |
| CC(Nc1cc(F)cc(F)c1)c1cc(CN2CCn3nccc3C2)cc2ncc(N3CCOCC3)nc12 (single isomer, unassigned) [Compound 210] | 7.92 | 5.99 | 5.50 | < 4.52 | < 4.52 | 6.61 | 6.82 | 80 |  |  |
| CC(C)NCCNC(=O)c1cc(C(C)Nc2cc(F)cc(F)c2)c2nc(N3CCOCC3)cnc2c1 (single isomer, unassigned) [Compound 211] | 9.00 | 6.72 | 5.47 | 4.69 | 5.44 | 7.44 | 7.66 | 206 |  |  |
| CC(C)NCCNC(=O)c1cc(C(C)Nc2cc(F)cc(F)c2)c2nc(N3CCOCC3)cnc2c1 (single isomer, unassigned) [Compound 212] | 7.92 | 5.48 | 5.15 | 4.86 | 5.29 | 6.40 | 6.48 | 204 |  |  |
| CC(Nc1cc(F)c(F)c(F)c1)c1cc(C(=O)NCCO)cc2ncc(N3CCOCC3)nc12 (single isomer, unassigned) [Compound 213] | 8.70 | 6.57 | 5.68 | 5.11 | 5.49 | 7.48 | 7.60 | 80 |  |  |
| CC(Nc1cc(F)cc(F)c1)c1cc(CN2CCn3nccc3C2)cc2ncc(N3CCOCC3)nc12 (single isomer, unassigned) [Compound 222] | 6.12 | < 4.52 | < 4.52 | < 4.52 | < 4.52 | < 6.29 | < 6.29 | 163 |  |  |
| CC(Nc1cc(F)cc(F)c1)c1cc(C=NO)cc2ncc(N3CCOCC3)nc12 (single isomer, unassigned) [Compound 225] | 8.22 | 6.27 | 5.33 | < 4.52 | 5.60 |  |  | 80 | 7.06 | 6.99 |
| CC(C)NCCNC(=O)c1cc(C(C)Nc2cccc(F)c2)c2nc(N3CCOCC3)cnc2c1 (single isomer, unassigned) [Compound 227] | 9.00 | 6.47 | 5.75 | < 4.52 | 5.42 | 7.57 | 7.70 | 80 |  |  |
